# Test results from US20050124607A1, “5-Substituted quinazolinone compounds useful as alpha 1A/B adrenergic receptor antagonists” (priority 2003, published 2005).
# Structures can show the parent of a compound that is named as a salt.
row,melting point [°C],Structure (SMILES)
1,198 to 201,COc1cc2[nH]c(N3CCN(C(=O)CCC(C)C)CC3)nc(=O)c2c(OC)c1OC.Cl
2,246 to 250,COc1cc2[nH]c(N3CCc4c(cccc4C4=NCCN4C)C3)nc(=O)c2c(C)c1OC
3,289 to 291,COc1cc2[nH]c(N3Cc4ccc(Cl)cc4C3)nc(=O)c2c(OC)c1OC.Cl
4,257.9 to 260,COc1cc2[nH]c(N3CCN(C4=NCCN4c4cccc(F)c4)CC3)nc(=O)c2c(C)c1OC
5,263 to 264,COc1cc2[nH]c(N3CCN(c4nccn4C)CC3)nc(=O)c2c(C)c1OC
6,215 to 217.5,COc1cc2[nH]c(N3CCc4c(cccc4N=C4N(C)CCN4C)C3)nc(=O)c2c(OC)c1OC
7,130.9 to 133.3,COc1cc2[nH]c(N3CCC(CCn4ccnc4N)CC3)nc(=O)c2c(C)c1OC
8,266.1 to 269.5,COc1cc2[nH]c(N3CCC(CCN4CCN=C4C)CC3)nc(=O)c2c(C)c1OC
9,252.4 to 253.2,COc1cc2[nH]c(N3CCC(CCn4ccnc4N)CC3)nc(=O)c2c(OC)c1OC
10,181.6 to 188.8,COc1cc2[nH]c(N3CCN(C4=NCCN4C)CC3)nc(=O)c2c(OC)c1OC (as salt: HCl)
11,286.6 to 293.1,"COc1cc2[nH]c(N3CCN(c4ccccn4)CC3)nc(=O)c2c(C)c1OC (as salt: HCl) [Example 40, 6,7-Dimethoxy-5-meth-yl-2-(4-pyridin-2-yl-pipe-razin-1-yl)-1H-quina-zolin-4-one]"
12,277.7 to 280,"COc1cc2[nH]c(N3CCN(c4cc(C)ccn4)CC3)nc(=O)c2c(C)c1OC (as salt: HCl) [Example 43, 6,7-Dimethoxy-5-meth-yl-2-[4-(4-methyl-py-ridin-2-yl)-piperazin-1-yl]-1H-quina-zolin-4-one]"
13,267 to 270,"COc1cc2c(cc1OC)CN(c1nc(=O)c3c(OC)c(OC)c(OC)cc3[nH]1)CC2 (as salt: HCl) [Example 104, 2-(6,7-Dimethoxy-3,4-di-hydro-1H-isoquinolin-2-yl)-5,6,7-tri-methoxy-1H-quinazolin-4-one]"
14,253.3 to 261.9,"COc1cc2c(cc1OC)CN(c1nc(=O)c3c(OC(C)C)c(OC)c(OC)cc3[nH]1)CC2 (as salt: HCl) [Example 107, 2-(6,7-Dimethoxy-3,4-di-hydro-1H-isoquinolin-2-yl)-5-iso-propoxy-6,7-di-methoxy-1H-quina-zolin-4-one]"
15,218.5 to 221,"CCOc1c(OC)c(OC)cc2[nH]c(N3CCc4cc(OC)c(OC)cc4C3)nc(=O)c12 (as salt: HCl) [Example 109, 2-(6,7-Dimethoxy-3,4-di-hydro-1H-isoquinolin-2-yl)-5-eth-oxy-6,7-di-methoxy-1H-quinazolin-4-one]"
16,255 to 259,"COc1cc2c(cc1OC)CN(c1nc(=O)c3c(O)c(OC)c(OC)cc3[nH]1)CC2 (as salt: HCl) [Example 110, 2-(6,7-Dimethoxy-3,4-di-hydro-1H-isoquinolin-2-yl)-5-hy-droxy-6,7-di-methoxy-1H-quinazolin-4-one]"
17,243 to 244,"COc1cc2c(cc1OC)CN(c1nc(=O)c3c(C(C)C)c(OC)c(OC)cc3[nH]1)CC2 (as salt: HCl) [Example 119, 2-(6,7-Dimethoxy-3,4-di-hydro-1H-isoquinolin-2-yl)-5-iso-propyl-6,7-di-methoxy-1H-quina-zolin-4-one]"
18,260 to 268,"COc1cc2c(cc1OC)CN(c1nc(=O)c3c(C)c(OC)c(OC)cc3[nH]1)CC2 (as salt: HCl) [Example 121, 2-(6,7-Dimethoxy-3,4-di-hydro-1H-isoquinolin-2-yl)-6,7-di-methoxy-5-meth-yl-1H-quinazolin-4-one]"
19,190 to 192,"COc1cc2[nH]c(N3CCc4c(ncnc4N4CCOCC4)C3)nc(=O)c2c(OC)c1OC (as salt: HCl) [Example 135, 5,6,7-Trimethoxy-2-(4-morpho-lin-4-yl-5,8-di-hydro-6H-pyrido[3,4-d]py-rimidin-7-yl)-1H-quina-zolin-4-one]"
20,236.6 to 237.7,"COc1cc2[nH]c(N3CCCN(C(=O)N4CCOCC4)CC3)nc(=O)c2c(C)c1OC (as salt: HCl) [Example 137, 6,7-Dimethoxy-5-meth-yl-2-[4-(morpho-line-4-carbo-nyl)-[1,4]diazepan-1-yl]-1H-quina-zolin-4-one]"

row,melting point [°C],Structure (SMILES)
1,198 to 201,"COc1cc2nc(N3CCN(C(=O)CCC(C)C)CC3)[nH]c(=O)c2c(OC)c1OC (as salt: salt) [Example A-1, 5,6,7-Trimethoxy-2-[4-(4-methyl-pentanoyl)-piperazin-1-yl]-1H-quinazolin-4-one]"
2,161.4 to 163.9,"CCN(C)Cc1ccc2c(c1)CN(c1nc(=O)c3c(OC)c(OC)c(OC)cc3[nH]1)CC2 [Example 1, 2-{7-[(Ethyl-methyl-ami-no)-methyl]-3,4-di-hydro-1H-isoquinolin-2-yl}-5,6,7-tri-methoxy-1H-quina-zolin-4-one]"
3,189.4 to 204.6,"CCN(C)Cc1ccc2c(c1)CN(c1nc(=O)c3c(C)c(OC)c(OC)cc3[nH]1)CC2 [Example 2, 2-{7-[(Ethyl-methyl-ami-no)-methyl]-3,4-di-hydro-1H-isoquinolin-2-yl}-6,7-di-methoxy-5-meth-yl-1H-quinazolin-4-one]"
4,214 to 216.9,"CCN(C)Cc1cccc2c1CCN(c1nc(=O)c3c(OC)c(OC)c(OC)cc3[nH]1)C2 [Example 3, 2-{5-[(Ethyl-methyl-ami-no)-methyl]-3,4-di-hydro-1H-isoquinolin-2-yl}-5,6,7-tri-methoxy-1H-quinazolin-4-one]"
5,178.1 to 180.9,"CNCc1ccc2c(c1)CN(c1nc(=O)c3c(OC)c(OC)c(OC)cc3[nH]1)CC2 [Example 4, 5,6,7-Trimethoxy-2-(7-meth-ylaminomethyl-3,4-di-hydro-1H-isoquino-lin-2-yl)-1H-quina-zolin-4-one]"
6,241.9 to 245.5,"CNCc1cccc2c1CCN(c1nc(=O)c3c(C)c(OC)c(OC)cc3[nH]1)C2 [Example 6, 6,7-Dimethoxy-5-meth-yl-2-(5-methyl-aminomethyl-3,4-di-hydro-1H-isoquinolin-2-yl)-1H-quin-azolin-4-one]"
7,266 to 271,"COc1cc2c(cc1OC)CN(c1cc(=O)c3cc(Cl)c(Cl)cc3[nH]1)CC2 [Example 7, 6,7-Dichloro-2-(6,7-di-methoxy-3,4-dihydro-1H-iso-quinolin-2-yl)-1H-quino-lin-4-one]"
8,208.8 to 212,"CNCC(=O)N(C)Cc1cccc2c1CCN(c1nc(=O)c3c(C)c(OC)c(OC)cc3[nH]1)C2 [Example 8, N-[2-(6,7-Dimethoxy-5-meth-yl-4-oxo-1,4-di-hydro-quina-zolin-2-yl)-1,2,3,4-tetrahydro-iso-quinolin-5-ylmethyl]-N-meth-yl-2-methyl-amino-acetamide]"
9,196 to 200,"COc1cc2[nH]c(N3CCc4c(cccc4/N=C4\CCCN4C)C3)nc(=O)c2c(C(C)C)c1OC [Example 9, 5-Isopropyl-6,7-di-methoxy-2-{5-[1-meth-yl-pyrolidin-(2E)-ylidene-amino]-3,4-di-hydro-1H-iso-quinolin-2-yl}-1H-quina-zolin-4-one]"
10,231.1 to 232.2,"COc1cc2[nH]c(N3CCN(c4cccc(C)n4)CC3)nc(=O)c2c(OC)c1OC [Example 24, 5,6,7-Trimethoxy-2-[4-(6-meth-yl-pyridin-2-yl)-pipe-razin-1-yl]-1H-quina-zolin-4-one]"
11,235.3 to 235.5,"COc1cc2[nH]c(N3CCN(c4cc(C)ccn4)CC3)nc(=O)c2c(OC)c1OC [Example 25, 5,6,7-Trimethoxy-2-[4-(4-meth-yl-pyridin-2-yl)-pipe-razin-1-yl]-1H-quina-zolin-4-one]"
12,142.8 to 147.2,"COc1cc2[nH]c(N3CCN(c4cccc[n+]4[O-])CC3)nc(=O)c2c(OC)c1OC [Example 26, 5,6,7-Trimethoxy-2-[4-(1-oxy-py-ridin-2-yl)-pipe-razin-1-yl]-1H-quina-zolin-4-one]"
13,227 to 229,"COc1cc2[nH]c(N3CCN(c4nccn4C)CC3)nc(=O)c2c(OC)c1OC [Example 28, 5,6,7-Trimethoxy-2-[4-(1-meth-yl-1H-imidazol-2-yl)-pipe-razin-1-yl]-1H-quina-zolin-4-one]"
14,229 to 231,"COc1ccnc(N2CCN(c3nc(=O)c4c(OC)c(OC)c(OC)cc4[nH]3)CC2)c1 [Example 30, 5,6,7-Trimethoxy-2-[4-(4-meth-oxy-pyridin-2-yl)-pipe-razin-1-yl]-1H-quina-zolin-4-one]"
15,284.5 to 285.5,"COc1cc2[nH]c(N3CCN(c4cccc(C)n4)CC3)nc(=O)c2c(C)c1OC [Example 42, 6,7-Dimethoxy-5-meth-yl-2-[4-(6-methyl-py-ridin-2-yl)-piperazin-1-yl]-1H-quina-zolin-4-one]"
16,83.1 to 110.9,"COC[C@@H]1CCCN1CCC1CCN(c2nc(=O)c3c(C)c(OC)c(OC)cc3[nH]2)CC1 [Example 51, 6,7-Dimethoxy-2-{4-[2-((S)-2-meth-oxymethyl-pyr-rolidin-1-yl)-ethyl]-pipe-ridin-1-yl}-5-meth-yl-1H-quinazolin-4-one]"
17,219 to 221.9,"COC[C@H]1CCCN1CCC1CCN(c2nc(=O)c3c(C)c(OC)c(OC)cc3[nH]2)CC1 [Example 57, 6,7-Dimethoxy-2-{4-[2-((R)-2-meth-oxymethyl-pyr-rolidin-1-yl)-ethyl]-pipe-ridin-1-yl}-5-meth-yl-1H-quinazolin-4-one]"
18,217.9 to 219.8,"COc1cc2[nH]c(N3CCC(OCc4ccccc4S(=O)(=O)N(C)C)CC3)nc(=O)c2c(C)c1OC [Example 61, 2-[1-(6,7-Dimethoxy-5-meth-yl-4-oxo-1,4-di-hydro-quinazolin-2-yl)-pipe-ridin-4-yl-oxymethyl]-N,N-dimethyl-benzene-sulfonamide]"
19,212 to 215,"COc1cc2[nH]c(N3CCC(Cc4ccccc4)CC3)nc(=O)c2c(OC)c1OC [Example 63, 2-(4-Benzyl-piperidin-1-yl)-5,6,7-tri-methoxy-1H-quina-zolin-4-one]"
20,78.8 to 91.6,"COC[C@@H]1CCCN1CCC1CCN(c2nc(=O)c3c(OC)c(OC)c(OC)cc3[nH]2)CC1 [Example 69, 5,6,7-Trimeth-oxy-2-{4-[2-((S)-2-meth-oxymethyl-pyr-rolidin-1-yl)-ethyl]-pipe-ridin-1-yl}-1H-quina-zolin-4-one]"
